Laboratory results taken from US8808769B2, “Method for extraction of fractions containing pharmacologically active ingredients with less cytotoxicity from one or more plants” (Bioved Pharmaceuticals, Inc., priority 2009, dated 2014).

Tested on: Pseudomonas aeruginosa (ATCC 9027)
Experiment: agar well diffusion assay (antimicrobial activity)
Format: cell-based
Settings: ATCC9027, 100 μl of 100 mg/ml solution per well, 37° C., 24 hours of incubation, mean of three readings, read-out: zone of inhibition (diameter)
Excerpt: Pseudomonas aeruginosa (ATCC 9027) strain was used as test organisms. The culture media, Nutrient Agar (NA), Nutrient Broth (NB) and Czapek Yeast Extract Agar (CYA) used for the growth of microorganisms, were purchased from Hi-Media. All other chemicals, including organic solvents used for the extraction of the plant metabolites, were of analytical grade.
The AP Extract 2, SX Extract 2, OS Extract 2, AP Extract 1, SX Extract 1 and OS Extract 1 were separately dissolved in 100% aqueous dimethylsulfoxide (DMSO) to obtain a final concentration of 100 mg/ml for each extract. 100 mg/ml solution of Chloramphenicol was prepared and used as a Positive control. Antimicrobial activity of the above mentioned extracts was determined, using the agar well diffusion assay method (Perez et al., 1990). Approximately 20 ml of molten and cooled media (NA and CYA) were poured in sterilized Petri dishes. The plates were left overnight at room temperature to check for any contamination to appear. The test organism was grown in nutrient broth for 24 hours. […]
Agar wells of 5 mm diameter were prepared with the help of a sterilized stainless steel cork borer. […] The antimicrobial activity of the extracts was taken on the basis of diameter of zone of inhibition, which was measured at cross-angles after 24 hours of incubation and the mean of three readings for each extract.

O=C(N[C@H](CO)[C@H](O)c1ccc([N+](=O)[O-])cc1)C(Cl)Cl [positive standard, Chloramphenicol]
zone of inhibition at 100000 µg/mL: 40 mm
